# Measured values reported in patent publication US20140219986A1, “DOSING REGIMENS FOR THE TREATMENT OF FABRY DISEASE” (AMICUS THERAPEUTICS ,INC., priority 2011, published 2014).
# “And” between values parts separate entries of the source, which are not always exact repeats. Equal values may be shown once. Where a name gives a salt, the structure may show the parent alone. Read-outs that look alike come from different tables or passages of the source.
# How the values were obtained:
# α-Gal A [1] = target: T1, α-Gal A (Homo sapiens, UniProt P06280); experiment: Phase 2 co-administration study: PBMC α-Gal A activity (4-MUG); format: in vivo; details: for individual patient increases in PBMC α-Gal A activity: 1 mg/kg
# T1 construct: purchased Genzyme Corporation (Fabrazyme®)
# T1 sequence (P06280 32-429): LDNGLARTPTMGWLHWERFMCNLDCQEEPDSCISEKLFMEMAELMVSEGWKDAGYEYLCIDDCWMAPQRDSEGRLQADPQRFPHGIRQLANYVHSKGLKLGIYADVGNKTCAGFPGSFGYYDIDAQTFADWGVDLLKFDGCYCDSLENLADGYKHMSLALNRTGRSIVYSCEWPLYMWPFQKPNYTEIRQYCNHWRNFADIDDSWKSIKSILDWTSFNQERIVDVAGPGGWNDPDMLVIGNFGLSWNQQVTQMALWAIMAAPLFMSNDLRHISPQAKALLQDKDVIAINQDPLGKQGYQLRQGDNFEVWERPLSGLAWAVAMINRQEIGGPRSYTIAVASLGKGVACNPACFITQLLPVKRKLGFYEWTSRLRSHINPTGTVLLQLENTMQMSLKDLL
# Description: WBC α-Gal A Levels. α-Gal A levels in WBCs will be determined in blood samples by a validated assay measuring enzyme activity using 4-MUG, with and without Con A. α-Gal A protein levels will be measured by Western blotting using anti-human Gal A antibody.
# (§1) Methods. The study was conducted according to the methods described in Example 1. Specifically, this was an open-label, single dose, non-randomized, fixed-sequence, 2-stage study. Stage 1 comprised of 3 periods: • (1) agalsidase beta 0.5 mg/kg or 1.0 mg/kg (infusion for about 2 hours) or agalsidase alpha 0.2 mg/kg (infusion for about 40 min.) enzyme replacement montherapy (ERT); • (2) ERT+150 mg migalastat oral tablet (single dose) co-administration, migalastat administered 2 hrs. prior to ERT; and • (3) 150 mg migalastat monotherapy.
# (§2) α-Gal A catalyzes the initial step in breakdown of substrate GL-3 in vivo. α-Gal A also acts on other substrates with the same α-bond such as the artificial low-molecular weight florescent substrate, 4-MUG. α-Gal A activity on 4-MUG was measured in vitro from plasma, skin, and PBMC samples following serial dilutions to dissociate migalastat.
# (§3) 6 patients with plasma, skin, and PBMC α-galactosidase A activity from Stage 1, Periods 1 and 2, were evaluated. Four patients received 0.5 mg/kg agalsidase beta ERT and 2 patients received 1.0 mg/kg agalsidase beta ERT during Period 1, and co-administration of 150 mg migalastat 2 hours prior to initiation of the same dose of ERT during Period 2.
# (§4) Serial blood samples were taken to 24 hours post dose for plasma α-Gal A activity and protein levels each period. Blood samples for α-Gal A activity in peripheral blood mononuclear cells (PBMCs) were taken at predose and on Days 1, 2, 7, and 14 of each period. Punch biopsies for skin α-Gal A activity were taken at predose Period 1 and on Days 2 and 7 during Periods 1 and 2. Plasma α-Gal A activity PK parameters include Cmax, Tmax, AUC0-t, AUC0-inf, and t1/2. Pharmacokinetic parameters are calculated using standard non-compartmental procedures (WINNONLIN version 5.0 or higher).
# (§5) α-Gal A activity in plasma skin, and PBMC lysates were measured by a fluorescence enzyme assay using 4-methylumbelliferyl-α-D-galactopyranoside (4-MUG). α-Gal A activity on 4 MUG was measured in vitro following serial dilutions to dissociate migalastat.
# α-Gal A [2] = target: T1, α-Gal A; experiment: Phase 2 co-administration study: skin α-Gal A activity (4-MUG); format: in vivo; details: 150 mg migalastat HCl + 0.5 mg/kg agalsidase beta, N=5 (Example 3)
# rhα-Gal A [3] = target: T2, rhα-Gal A (Homo sapiens, UniProt P06280); experiment: In vitro stabilization of rhα-Gal A at neutral pH (thermal denaturation and activity); format: biochemical
# T2 sequence (P06280 32-429): T1 sequence (P06280 32-429)
# Source text: Migalastat hydrochloride stabilizes wild-type α-Gal A in vitro and as well as in vivo.
# rhα-Gal A [4] = target: T2, rhα-Gal A; experiment: Oral migalastat hydrochloride with rhα-Gal A injection in the GLA deficient mouse, tissue α-Gal A and GL-3; format: in vivo; details: 30, 100 or 300 mg/kg oral 30 min prior to and 2 hours after rhα-Gal A, vs rhα-Gal A alone
# α-Gal A [5] = target: T1, α-Gal A; experiment: Phase 2 co-administration study: Western blot of plasma α-Gal A protein; format: in vivo; details: 5 out of 7 subjects
# Description: Migalastat HCl and rhα-Gal A Pharmacokinetics. Concentrations of migalastat HCl in blood samples will be measured in plasma using a validated LC-MS/MS assay. α-Gal A levels in plasma will be determined by a validated assay measuring enzyme activity using 4-MUG, with and without Con A. α-Gal A protein levels will be measured by Western blotting using anti-human Gal A antibody.
# Western blot analysis of α-Gal A protein were performed on plasma samples using anti-human α-Gal A antibody. An rhα-Gal A (agalsidase) standard curve was run to calculate the appropriate concentration of α-Gal protein in each sample.
# agalsidase alfa = target: T3, agalsidase alfa (Homo sapiens, UniProt P06280); experiment: In vitro thermal denaturation assay of agalsidase alfa; format: binding
# T3 construct: purchased Shire Human Genetic Therapies (Replagal®)
# T3 sequence (P06280 32-429): T1 sequence (P06280 32-429)
# Description: The effect of migalastat hydrochloride on the physical stability of agalsidase alfa was evaluated with an in vitro thermal denaturation assay.
# [6] = male GLA-deficient mice; 3 and 30 mg/kg three times a week for four weeks with Fabrazyme 1 mg/kg i.v. once a week
# Description: A preliminary study in GLA deficient mice has been conducted evaluating the safety of co-administered migalastat hydrochloride and Fabrazyme®. Migalastat hydrochloride was administered three times a week for four weeks at doses of 3 and 30 mg/kg in combination with Fabrazyme® administered intravenously once a week at a dose of 1 mg/kg.
# [7] = Phase 2 co-administration study: safety; format: in vivo, human
# Source text: Safety Parameters. Safety parameters will be assessed by review of changes in physical exam findings, vital signs, ECG changes over time, clinical labs and adverse events.
# The safety parameters included adverse events (AEs), vital signs, clinical laboratory tests (hematology, serum chemistry, and urinalysis), electrocardiograms (ECGs), physical examinations, and use of concomitant medications.
# α-Gal A [8] = target: T1, α-Gal A; experiment: Phase 2 co-administration study: PBMC α-Gal A activity (4-MUG); format: in vivo; details: 150 mg migalastat HCl + 0.5 mg/kg agalsidase beta, N=5 (Example 3)
# α-Gal A [9] = target: T1, α-Gal A; experiment: Phase 2 co-administration study: skin α-Gal A activity (4-MUG); format: in vivo
# Description: α-Gal A Enzyme Levels in Skin. α-Gal A enzyme levels will be examined in skin biopsy samples. Skin biopsies will be done using a “punch” device. One piece will be removed at each visit. α-Gal A levels in skin will be determined by a validated assay measuring enzyme activity using 4-MUG, with and without Con A. α-Gal A protein levels will be measured by Western blotting using anti-human Gal A antibody.
# as §1, §2, §3, §4, §5
# [10] = cited from earlier work
# [11] = cited from earlier work; remark: listed apart in the source
# [12] = cited from earlier work; remark: listed apart in the source
# [13] = 150 mg migalastat + 1.0 mg/kg agalsidase beta, Day 2, N=2
# [14] = 150 mg migalastat + 1.0 mg/kg agalsidase beta, Day 7, N=2
compound,measurement,setting,value
"OC[C@H]1NC[C@H](O)[C@@H](O)[C@H]1O [migalastat hydrochloride, (2R,3S,4R,5S)-2-(hydroxymethyl)piperidine-3,4,5-triol]",individual patient increase range in PBMC α-Gal A activity,"α-Gal A [1]; 150 mg migalastat + 0.5 mg/kg agalsidase beta, Day 2",1.4-3.1 fold
same,mean increase in PBMC α-Gal A activity,"α-Gal A [1]; 150 mg migalastat + 0.5 mg/kg agalsidase beta, Day 2, N=4 (Example 2)",2.3 fold
same,individual patient increase range in PBMC α-Gal A activity,"α-Gal A [1]; 150 mg migalastat + 0.5 mg/kg agalsidase beta, Day 7",1.4-2.3 fold
same,mean increase in PBMC α-Gal A activity,"α-Gal A [1]; 150 mg migalastat + 0.5 mg/kg agalsidase beta, Day 7, N=4 (Example 2)",2.0 fold
same,individual patient increase range in PBMC α-Gal A activity,"α-Gal A [1]; 150 mg migalastat + 0.5 mg/kg agalsidase beta, Day 14",1.7-2.8 fold
same,mean increase in PBMC α-Gal A activity,"α-Gal A [1]; 150 mg migalastat + 0.5 mg/kg agalsidase beta, Day 14, N=4 (Example 2)",2.2 fold
same,individual patient increases in PBMC α-Gal A activity,"α-Gal A [1]; 150 mg migalastat + 1.0 mg/kg agalsidase beta, Day 2",1.1 fold and 2.5 fold
same,mean increase in PBMC α-Gal A activity,α-Gal A [1]; [13],1.8 fold
same,individual patient increases in PBMC α-Gal A activity,"α-Gal A [1]; 150 mg migalastat + 1.0 mg/kg agalsidase beta, Day 7",3.6 fold and 6.0 fold
same,mean increase in PBMC α-Gal A activity,α-Gal A [1]; [14],4.8 fold
same,individual patient increases in PBMC α-Gal A activity,"α-Gal A [1]; 150 mg migalastat + 1.0 mg/kg agalsidase beta, Day 14",1.7 fold and 5.4 fold
same,mean increase in PBMC α-Gal A activity,"α-Gal A [1]; 150 mg migalastat + 1.0 mg/kg agalsidase beta, Day 14, N=2",3.5 fold
same,mean increase in skin α-Gal A activity,α-Gal A [2]; Day 2,2.6 fold
same,mean increase in skin α-Gal A activity,α-Gal A [2]; Day 7,1.4 fold
same,stabilization of rhα-Gal A,rhα-Gal A [3],significant time- and concentration-dependent increases in stabilization
same,"GL-3 levels in skin, heart, kidney, and plasma",rhα-Gal A [4],dose-dependent reduction
same,tissue α-Gal A levels,rhα-Gal A [4],dose-dependent increase
same,"plasma α-Gal A protein, Period 2 (co-administration)/Period 1 (ERT alone) AUC ratio",α-Gal A [5],No change
same,melting temperature (Tm) of agalsidase alfa,"agalsidase alfa; pH 5.2, 10 μM migalastat hydrochloride",68 °C
same,melting temperature (Tm) of agalsidase alfa,"agalsidase alfa; pH 7.4, 10 μM migalastat hydrochloride",59 °C
same,"survival, clinical condition, hematology and clinical chemistry parameters",[6],no direct drug-related changes
same,safety and tolerability,[7]; co-administration of 150 mg migalastat HCl with agalsidase beta,generally safe and well-tolerated
same,adverse events (AEs) reported,"[7]; seven subjects, to date, one serious (TIA, prior to dosing), all considered unrelated to study drug",12
same,mean increase in PBMC α-Gal A activity,α-Gal A [8]; Day 2,2.4 fold
same,mean increase in PBMC α-Gal A activity,α-Gal A [8]; Day 7,1.9 fold
same,mean increase in PBMC α-Gal A activity,α-Gal A [8]; Day 14,2.1 fold
same,individual patient increases in skin α-Gal A activity,"α-Gal A [9]; 150 mg migalastat + 0.5 mg/kg agalsidase beta, Day 2 (Example 2), 0.5 mg/kg",2.8 fold and 3.9 fold and 1.1 fold
same,mean increase in skin α-Gal A activity,"α-Gal A [9]; 150 mg migalastat + 0.5 mg/kg agalsidase beta, Day 2, N=3 (Example 2)",2.6 fold
same,change in skin α-Gal A activity from Period 1,"α-Gal A [9]; 150 mg migalastat + 0.5 mg/kg agalsidase beta, Day 7 (Example 2)",No change
same,individual patient increases in skin α-Gal A activity,"α-Gal A [9]; 150 mg migalastat + 1.0 mg/kg agalsidase beta, Day 2, 1 mg/kg",1.6 fold and 2.1 fold
same,mean increase in skin α-Gal A activity,α-Gal A [9]; [13],1.9 fold
same,individual patient increases in skin α-Gal A activity,"α-Gal A [9]; 150 mg migalastat + 1.0 mg/kg agalsidase beta, Day 7, 1 mg/kg",1.7 fold and 1.2 fold
same,mean increase in skin α-Gal A activity,α-Gal A [9]; [14],1.5 fold
same,patients with increased skin α-Gal A activity following co-administration,"α-Gal A [9]; 150 mg migalastat + 0.5 or 1.0 mg/kg agalsidase beta, Day 7",3 of 5 and four
"agalsidase alfa: recombinant α-Gal A enzyme replacement therapy (Replagal®, Shire Human Genetic Therapies)",melting temperature (Tm) of agalsidase alfa,"agalsidase alfa; pH 5.2, enzyme alone",58 °C
same,melting temperature (Tm) of agalsidase alfa,"agalsidase alfa; pH 7.4, enzyme alone",approximately 51 °C
same,AUC versus dose,[10]; 0.1 to 0.4 mg/kg,linearly proportional to dose
same,IgE antibodies,[10]; 10-week study,No IgE antibodies were detected
same,patients who became IgG positive during the study,[10]; 10-week study,Two of 18
same,Plasma GL-3 levels reduction,"[10]; all dose groups, independent of dose and dosing frequency",approximately 50%
same,mean half life,"[10]; doses 0.1 to 0.4 mg/kg agalsidase alfa, ERT naïve adult male Fabry patients",56 to 76 min
agalsidase beta: recombinant α-Gal A enzyme replacement therapy (Fabrazyme®; Genzyme Corporation),PBMC α-Gal A activity relative to baseline,"α-Gal A [1]; agalsidase beta alone, all patients, all time points",increased
same,"pharmacokinetics, dose linearity",[11]; AUC increasing and clearance decreasing disproportionally with dose,non-linear pharmacokinetics
same,AUC increase,[11]; dose increased from 0.3 mg/kg to 1 mg/kg,approximately 6 fold
same,AUC increase,[11]; dose increased from 1 mg/kg to 3 mg/kg,~8 fold
same,"maximal agalsidase concentrations and AUC values reduced, of baseline values",[12]; adult patients with the highest titers of IgG,up to 26%
same,patients who developed IgG antibodies,[12]; adult patients,79%
same,patients who developed IgG antibodies,[12]; pediatric patients,69%
same,patients with decreased skin α-Gal A activity relative to baseline,"α-Gal A [9]; agalsidase beta alone, 0.5 mg/kg infusion, Day 2",2
